Source: a melting point compilation (Tetko et al.; mined from patent text by program, amines drawn as free bases though some values may be those of a salt)

Structure (SMILES) | melting point
CNC(=O)c1cn(C)c(=O)cc1Nc1ccc(I)cc1F | 252 to 254 °C
COc1ccccc1N1CCN(CCn2cnc3sc4c(c3c2=O)CCNC4)CC1 | 168 to 170 °C
CCOP(=O)(/C=C/c1ccc(C(=O)OC)cc1)OCC | 60 to 65 °C
CCC(=O)NC(=O)c1cc([N+](=O)[O-])cnc1C | 171 to 173 °C
COC(=O)C(C)Oc1ccc(NC(=O)COCc2ccccc2)cc1 (centres undefined) | 67 to 70 °C
CC(=O)N(C(C)C(=O)NC(C)C(=O)OC(C)(C)C)C(CO)c1ccccc1 (centres undefined) | 38 to 40 °C
CSc1sc(C(=O)O)c2c1-c1sc(C(=O)O)cc1CC2 | > 300 °C
CCC(=O)NC/C=C1\CCc2ncc3c(c21)CCO3 | 163 to 164 °C
CN1Cc2c(-c3nc(C4CC4)no3)ncn2-c2ccc(F)cc2C1=O | 216 to 217 °C
COc1ccccc1C1CC(=O)Oc2ccc(C)cc21 (centres undefined) | 140 °C
CS(=O)(=O)c1c[nH]nc1C(CCCC(=O)C1CCCCC1)CO[N+](=O)[O-] (centres undefined) | 111 to 113 °C
CC1C(=O)OC2COCC21 (centres undefined) | 89.5 to 90 °C
O=C(Cc1cccc(O)c1)NNC(=O)c1ccc(O)c([N+](=O)[O-])c1 | 190 to 193 °C
N#Cc1ccc(-c2cn(-c3ccc(C#N)cc3)c(SCc3cccnc3)n2)cc1 | 218 to 225 °C
CC(=O)c1ccc(OCC(C)(O)C(=O)Nc2ccc([N+](=O)[O-])c(C)c2)cc1 (centres undefined) | 153 to 155 °C
CC(=O)OCCc1c(N)cc(OCc2ccccc2)c2ccccc12 | 76 to 82 °C

Results, then the compound that gave them:

melting point | Structure (SMILES)
132 to 134 °C | COc1ccc(-n2nc(C(=O)CCCO[N+](=O)[O-])cc2-c2ccc(S(C)(=O)=O)cc2)cc1
246 to 247 °C | Cc1ccc(NC(=O)c2cc(Cl)c(O)c(Cl)c2)c(O)c1
124 to 125 °C | COc1cc(C(C)C)c2c(c1)S(=O)(=O)N(COc1cc(C(F)(F)F)nn1-c1ccc3ccccc3n1)C2=O
118 to 123 °C | CC(C)N=C(NC(C)C)ON1C(C)(C)CC(O)CC1(C)C
122 to 124 °C | O[C@@H](c1n[nH]cc1-c1ccccc1)[C@H](CCN1CCC(O)(c2ccccc2)CC1)c1ccc(Cl)c(Cl)c1 (racemic)
257 to 258 °C | CC(C)(C)c1ccc(N2CCCN(c3cc[nH]c(=S)c3C#N)CC2)cc1
93 to 94 °C | Cc1nccn1CCCc1ccc(OCc2coc(/C=C/c3ccccc3)n2)cc1
167 °C | CCN(CC)CCCCC1CCN(CCNC(=O)N2c3ccccc3C(=O)Nc3cccnc32)CC1
81 °C | NCc1cc(-c2ccc(Cl)cc2)no1
144 to 145 °C | COc1ccnc(N2CCN(CC3(CNC(C)=O)C=CC=CC3)CC2)n1 (centres undefined)
171 to 174 °C | CC(C)CC(NC(=O)C(NC(=O)OCc1ccccc1)C(C)C)C(=O)NC(CCCCNC(=O)OCc1ccccc1)C(=O)Oc1cccc2ccccc12 (centres undefined)
131 to 133 °C | COC(=O)CCCC#Cc1cc(Cl)ccc1NS(=O)(=O)c1ccc2c(c1)OCCN2C
109 to 111 °C | CC(C)(C)OC(=O)N[C@@H](CSc1ccccc1N)C(=O)O
208 to 210 °C | COC(=O)c1ccccc1-n1c(CCl)nc2c(OC)cccc2c1=O
153 to 155 °C | CSc1ncc2c(n1)C(C)CNN(C)C2=O (centres undefined)
220 °C | Cc1nn(-c2c(Cl)cc(Cl)cc2Cl)c(N)c1C(=O)c1ccccc1Cl
250 °C | O=C1Cc2cc(Br)cnc2N1
117 to 118 °C | CCOC(=O)C(=O)CC(=O)/C=C/c1ccc(Cl)cc1
170 to 173 °C | CC(=O)CC(=O)Nc1c(C(=O)c2ccccc2)[nH]c2cc(Cl)ccc12
265 to 266 °C | CCC(=O)Nc1ccc2ncnc(Nc3cccc(Br)c3)c2c1
163 to 164 °C | O=C1C2CC(c3ccc([N+](=O)[O-])cc3)(C2)C(=O)N1C1CCCCC1
> 300 °C | Cc1nc(NC(=O)Nc2ccc(Cl)cc2)sc1C(=O)NCc1ccccc1
42 to 54 °C | CC1=C(c2ccccc2)C(=O)N(C(C)(C)C(O)C(C)C)CO1 (centres undefined)
